In patent US20080249043A1, “Methods and Compositions Involving Protein Kinase C-Delta” (priority 2004, published 2008):
Values after ≈ are worked out from the molar mass of the structure shown. Residues, ends and D or L forms follow the SMILES beside them. *: point of attachment. Cbz = O=C(OCc1ccccc1)*; CH2F = FC*

Key:
U937 cells = assay: TUNEL assay of apoptosis in U937 cells; assay type: cell-based; details: for TUNEL positivity, time course: 50 ng/ml bortezomib
Method: […] Cells were harvested and fixed for TUNEL assays. The percentages of the TUNEL positive cells are indicated.
(§1) U937 cells were grown in RPMI with 10% fetal bovine serum and L-glutamine. Bortezomib was from Millennium Pharmaceutical Corp. (Cambridge, Mass.). Rottlerin was from Sigma (St. Louis, Mo.). PKC-δ monoclonal antibody was from BD Transduction Laboratories (San Jose, Calif.). Boc-D(Ome)-FMK (BAF) and Go6976 were from Calbiochem (San Diego, Calif.). The TUNEL assay (terminal deoxynucleotidyltransferase-mediated dUTP-biotin nick end labeling) was from Roche (Switzerland). Subcellular fractionation and western blotting were performed as described (Chen Jet al. Mol Cancer Ther. 2002;1:961-967).

HeLa cells [1] = assay: Apoptosis by PI staining and flow cytometry (subG1 population) in HeLa cells; assay type: cell-based; details: HeLa cells, 50 μM Z-VAD or 5 μM CsA 30 min, then AD198 16 h
Method: Cell culture, transfection and treatment—HeLa cells were cultured in Dulbecco's modified Eagle's medium (DMEM) containing 10% fetal bovine serum, 2 mM L-glutamine and penicillin (100 units/ml)-streptomycin (100 μg/ml) at 37° C. in a humidified 5% CO2 atmosphere. HeLa cells at 90% confluence were transfected with different mammalian expression vectors using Lipofectamin 2000 according to the manufacturer's protocol (Invitrogen Inc., Carlsbad, Calif.). At 24 h or 48 h after transfection, cells were treated with 1:100 dilution of AD198 that was dissolved in dimethyl sulfoxide (DMSO). For down-regulation of PLS3, HeLa cells at 50% confluence were transfected with siRNA against PLS3 or a scrambled control. At 48 h, cells were treated with AD198 for 16 h and harvested for flow cytometry. The whole cell lysate was extracted for analysis with Western blotting.
Analysis of apoptosis and determination of the transmembrane potential in mitochondria—Cell death was quantified by propidium iodide (PI) staining, followed by flow cytometry (Becton-Dickinson). HeLa cells were fixed in 0.5 ml cold 70% ethanol at −20° C. overnight. Cell pellet were resuspended in 300 μl of PBS containing 0.025 mg/ml PI, 0.05% Triton X-100, 0.1 mg/ml RNase A and incubated at room temperature for 30 min. The DNA content was evaluated by FACScan. For mitochondrial potential analysis, HeLa cells were incubated with MitoTracker Green at 37° C. for 20 min. The cells were collected and washed with PBS and analyzed by FACScan.
Cell culture, transfection, selection and treatment—HeLa cells were cultured in Dulbecco's modified Eagle's medium (DMEM) with 10% fetal bovine serum, 2 mM L-glutamine, 100 units/ml penicillin and 100 μg/ml streptomycin at 37° C. HeLa cells at 90% confluence were transfected with different mammalian expression vectors or siRNA using Lipofectamin 2000 according to the manufacturer's protocol (Invitrogen Inc., Carlsbad, Calif.). At 48 h after transfection, cells were incubated with 5 μM AD198 or dimethyl sulfoxide (DMSO) for 4 h or 16 h. After transfection, cells were selected with 1 mg/ml G418 for 2 wk. After corresponding mock-transfected cells were killed by G418, the concentration of G418 was decreased to 0.5 mg/ml and maintained for another 2 wk. The whole cell lysates or subcellular fractions were extracted for Western blotting analysis (Liu et al. (2003)).
Analysis of apoptosis—HeLa cells were harvested and fixed in 70% ethanol at −20° C. overnight. Cells were then washed with PBS and stained with 0.025 mg/ml propidium iodide (PI), 0.05% Triton X-100, 0.1 mg/ml RNase A for 30 min at room temperature. The DNA content was analyzed by FACScan (Becton-Dickinson), and the subG0/G1 population was used to represent apoptosis.

PLS3 = PLS3 threonine phosphorylation: Ni-bead pulldown of His-tagged PLS3, Western blot with PT antibody, HeLa cells; assay type: cell-based; details: HeLa cells, AD198 (5 μM) along with Z-VAD or CsA, 2 h
Method: Pulldown of His-tagged proteins from transfected HeLa cells—Transfected HeLa cells were washed with ice-cold phosphate-buffered saline (PBS) and incubated in the lysis buffer (50 mM NaH2PO4, 500 mM NaCl, 20 mM imidazole, 1% Triton X-100, 20 mM 2-mercaptoethanol, pH8.0) for 5 min and sonicated briefly on ice. The lysates were centrifuged at 10,000×g for 10 min at 4° C. The supernatant was saved and the protein concentration was measured with the Bio-Rad protein assay (Bio-Rad Laboratories, Hercules, Calif.) and adjusted to same concentrations for each sample. The supernatants were incubated with Ni-beads on a shaker for 2 h at 4° C. Beads were then pelleted at 800×g for 2 min at 4° C. and washed with ice-cold wash buffer (50 mM NaH2PO4, 500 mM NaCl, 20 mM imidazole, 1% Triton X-100, pH8.0) for five times. Beads were resuspended in SDS sample buffer and analyzed by Western blotting.
Western blot analysis—Equal amounts of protein were analyzed by 10% SDS-PAGE and electrotransferred to Immobilon-P membranes (Millipore Corporation, Bedford, Mass.). Monoclonal PKC-δ, PT, and β-actin and polyclonal VDAC antibodies were used at 1:1,000 and polyclonal PLS3 antibody was used at 1:2,000 for immunoblotting. Secondary anti-mouse or anti-rabbit antibodies conjugated with horseradish peroxidase were used at 1:2,000 and incubated with the membrane for 1 h at room temperature. […]

HeLa cells [2] = assay: Mitochondrial potential by MitoTracker Green and flow cytometry in HeLa cells; assay type: cell-based; details: 50 μM Z-VAD or 5 μM CsA 30 min, then AD198 16 h
Method: Cells were incubated with MitoTracker Green at 37° C. for 20 min followed by flow cytometry analysis. The histogram represents the means±standard deviations from three independent experiments.

PKC-δ = assay: Western blotting and subcellular fractionation for PKC-δ in U937 cells; assay type: cell-based
Method: U937 cells were treated with PMA (200 nM) or bortezomib (100 ng/ml) for 2 and 4 hours and cells were harvest for western blotting with antibody against PKC-δ. Same blot was probed with actin antibody as loading controls. […] U937 cells were treated with various concentrations of bortezomib and cells were subjected to subcellular fractionation to isolate mitochondria and cytoplasm. The whole cell lysates and fractions were analyzed with antibody against PKC-δ. […] U937 cells were treated with bortezomib (50 ng/ml) and/or caspase inhibitor BAF (30 μM) for 16 hours. Whole cell lysates were analyzed by western blotting with the PKC-δ antibody. […] Cells were treated with PMA (200 nM) for 6, 9 and 12 hours and subjected to subcellular fractionation. Western blot was probed with the PKC-δ antibody. M: mitochondria; C: cytoplasm.
as §1

[3] = monomeric boronic acid; pH range of 2-6.5; cited from earlier work
[4] = U937 cells, 2 and 4 hours, PMA 200 nM, bortezomib 100 ng/ml
[5] = U937 cells, bortezomib 16 hours

With Cn1c2ccccc2c2c3c(c4c5ccccc5n(CCC#N)c4c21)CNC3=O [Go6976] the “effect on bortezomib-induced apoptosis (TUNEL)” value (U937 cells; Go6976 (200 nM) with bortezomib, 16 hours) was “could not prevent bortezomib-induced apoptosis”.
In the case of CC(NC(=O)C(NC(=O)OCc1ccccc1)C(C)C)C(=O)NC(CC(=O)O)C(=O)CF (stereo not drawn) [Z-VAD] (Cbz-Val-Ala-Asp-CH2F; configuration not given here), the “effect on AD198-induced apoptosis” value (HeLa cells [1]) was “suppressed”, the “effect on AD198-induced threonine phosphorylation of PLS3” value (PLS3) was “not affected” and the “effect on AD198-induced mitochondrial permeability transition / loss of mitochondrial potential” value (HeLa cells [2]) was “could not block”.
For CCCCCCCCCCCCCC(=O)O[C@@H]1[C@@H](C)[C@@]2(O)[C@@H](C=C(CO)C[C@]3(O)C(=O)C(C)=C[C@@H]23)[C@@H]2C(C)(C)[C@]12OC(C)=O [PMA], the PKC-δ protein level (PKC-δ; [4]) was “down-regulated PKC-δ” and the “PKC-δ localization after subcellular fractionation” value (PKC-δ; U937 cells, PMA (200 nM) 6, 9 and 12 hours) was “full-length PKC-δ and its degradation products in mitochondria”.
For COC(=O)CC(NC(=O)OC(C)(C)C)C(=O)CF (stereo not drawn) [BAF, Boc-D(Ome)-FMK], the “effect on bortezomib-induced 32 kD PKC-δ band” value (PKC-δ; bortezomib (50 ng/ml) and BAF (30 μM), 16 hours) was “disappearance of this 32 kD band”.
In the case of CC(C)C[C@H](NC(=O)[C@H](Cc1ccccc1)NC(=O)c1cnccn1)B(O)O [bortezomib, [(1R)-3-methyl-1-[[(2S)-1-oxo-3-phenyl-2-[(pyrazinylcarbonyl)amino]propyl]amino]butyl] boronic acid], the “TUNEL positivity, time course” value (U937 cells; 6 hours) was “did not become TUNEL positive”, the “TUNEL positivity, time course” value (U937 cells; 16 h) was “strongly positive” and the IC50 (U937 cells; Homo sapiens, U-937, U937 cells) was 0.01 to 0.05 µg/mL (≈ 0.026 to 0.13 µM). The “concentration at which cells became TUNEL positive” value (U937 cells; U937 cells) was 5 ng/mL, the “apoptosis by TUNEL assays” value (U937 cells; bortezomib 5 ng/ml, 16 hours) was 8.02% and the “apoptosis by TUNEL assays” value (U937 cells; bortezomib 10 ng/ml, 16 hours) was 19.85%. For the same compound, the “apoptosis by TUNEL assays” value (U937 cells; bortezomib 50 ng/ml, 16 hours) was 76.07%, the PKC-δ protein level (PKC-δ; [4]) was “induced an increase of PKC-δ” and the “32 kD PKC-δ fragment” value (PKC-δ; [5]) was “new band at 32 kD”. The PKC-δ protein level (PKC-δ; [5]) was “the level of PKC-δ decreased” and the solubility in water [3] was 3300 to 3800 µg/mL.
With CC(=O)c1c(O)c(C)c(O)c(Cc2c(O)c3c(c(C(=O)/C=C/c4ccccc4)c2O)OC(C)(C)C=C3)c1O [rottlerin] the “TUNEL positive cells with addition of rottlerin” value (“TUNEL positive cells” for short) (U937 cells; bortezomib 5 ng/ml + rottlerin (10 μM), 16 hours) was 4.35%, the “TUNEL positive cells” value (U937 cells; bortezomib 10 ng/ml + rottlerin (10 μM), 16 hours) was 8.55% and the “TUNEL positive cells” value (U937 cells; bortezomib 50 ng/ml + rottlerin (10 μM), 16 hours) was 33.07%.
